Experimental data taken from ChEMBL document CHEMBL1201862, “PubChem BioAssay data set” (2004).
One block for each compound: values may come before it. Calls of active or inactive are those of the source.

What was measured:
[1] = target: Intestinal-type alkaline phosphatase (Mus musculus, UniProt P24822); assay: PubChem AID 488874; format: functional
[2] = Luminescence Cell-Based Dose Retest to Confirm Inhibitors of Cancer Stem Cells. [Related pubchem assays (depositor defined):AID2717, AID2721]; format: functional; settings: Homo sapiens
[3] = target: T1, Intestinal-type alkaline phosphatase (Homo sapiens, UniProt P09923); assay: human intestinal alkaline phosphatase activators, dose response, biochemical, luminescence, uHTS hits (AID 463120); format: functional
T1 sequence (P09923 whole entry): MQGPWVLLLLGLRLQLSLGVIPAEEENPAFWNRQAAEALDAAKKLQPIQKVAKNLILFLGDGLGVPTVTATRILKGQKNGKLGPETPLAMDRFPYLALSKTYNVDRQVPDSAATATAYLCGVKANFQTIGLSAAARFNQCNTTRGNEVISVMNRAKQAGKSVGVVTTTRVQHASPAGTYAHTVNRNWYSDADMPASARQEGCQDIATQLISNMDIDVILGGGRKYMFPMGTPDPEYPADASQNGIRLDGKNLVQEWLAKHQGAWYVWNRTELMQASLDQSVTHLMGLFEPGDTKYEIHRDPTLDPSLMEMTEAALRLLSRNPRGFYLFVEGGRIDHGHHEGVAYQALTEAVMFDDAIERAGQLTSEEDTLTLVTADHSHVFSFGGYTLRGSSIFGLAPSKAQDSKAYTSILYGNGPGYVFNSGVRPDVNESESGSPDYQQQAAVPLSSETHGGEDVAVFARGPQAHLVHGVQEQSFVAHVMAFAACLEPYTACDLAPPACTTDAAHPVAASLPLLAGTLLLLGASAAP

[4] = target: T1, Intestinal-type alkaline phosphatase; assay: activation of human intestinal alkaline phosphatase – biochemical, luminescent, uHTS hits, set 2, dose response (AID 488817); format: functional;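 also: potency of activators that raise enzyme activity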
[5] = target: T2, Alkaline phosphatase, tissue-nonspecific isozyme (Homo sapiens, UniProt P05186); assay: activation of tissue-nonspecific alkaline phosphatase – biochemical, TNAP isozyme, human IAP uHTS hits, selectivity assay for human IAP activator project, dose response (AID 488886); format: functional;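 also: potency of compounds raising TNAP activity as a selectivity check on IAP activators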
T2 sequence (P05186 whole entry): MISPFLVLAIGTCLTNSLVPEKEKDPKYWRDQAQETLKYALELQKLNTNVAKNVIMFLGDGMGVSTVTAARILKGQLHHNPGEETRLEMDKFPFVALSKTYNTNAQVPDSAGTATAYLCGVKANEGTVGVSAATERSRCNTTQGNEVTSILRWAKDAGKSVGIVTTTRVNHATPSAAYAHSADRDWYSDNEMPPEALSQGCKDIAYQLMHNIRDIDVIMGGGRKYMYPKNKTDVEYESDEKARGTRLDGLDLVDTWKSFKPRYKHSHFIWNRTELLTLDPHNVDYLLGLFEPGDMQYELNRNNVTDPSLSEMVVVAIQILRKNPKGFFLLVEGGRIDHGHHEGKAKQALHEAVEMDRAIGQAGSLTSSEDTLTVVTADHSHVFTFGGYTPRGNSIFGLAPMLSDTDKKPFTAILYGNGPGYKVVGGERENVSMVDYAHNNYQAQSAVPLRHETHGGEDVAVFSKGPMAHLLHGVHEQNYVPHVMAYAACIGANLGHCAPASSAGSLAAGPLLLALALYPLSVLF

[6] = system: Escherichia coli; assay: microbe, parasite or virus in culture
[7] = target: T3, Cannabinoid receptor 1 (Homo sapiens, UniProt P21554); assay: SAR analysis of antagonists of the Cannabinoid Receptor 1 using an Image-Based Assay - Set 2. [Related pubchem assays (depositor defined):AID2013, AID2026]; format: functional
T3 sequence (P21554 whole entry): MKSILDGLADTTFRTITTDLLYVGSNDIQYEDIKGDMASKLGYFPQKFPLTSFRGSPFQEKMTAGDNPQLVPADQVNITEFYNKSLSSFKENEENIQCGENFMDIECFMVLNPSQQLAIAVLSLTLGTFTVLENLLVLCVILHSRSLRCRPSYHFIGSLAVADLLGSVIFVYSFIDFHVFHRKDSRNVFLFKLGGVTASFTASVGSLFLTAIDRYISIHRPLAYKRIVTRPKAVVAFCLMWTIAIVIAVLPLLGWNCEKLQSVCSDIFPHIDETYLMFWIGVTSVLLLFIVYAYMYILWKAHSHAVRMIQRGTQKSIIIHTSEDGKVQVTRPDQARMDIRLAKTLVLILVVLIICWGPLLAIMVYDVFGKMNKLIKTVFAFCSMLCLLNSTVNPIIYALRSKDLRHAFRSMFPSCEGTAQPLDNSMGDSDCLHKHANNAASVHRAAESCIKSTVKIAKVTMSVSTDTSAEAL

[8] = target: T4, G-protein coupled receptor 35 (Homo sapiens, UniProt Q9HC97); assay: SAR analysis of Agonists of the GPR35 Receptor using an Image-Based Assay - Set 2. [Related pubchem assays (depositor defined):AID2013, AID2026]; format: functional
T4 sequence (Q9HC97 whole entry): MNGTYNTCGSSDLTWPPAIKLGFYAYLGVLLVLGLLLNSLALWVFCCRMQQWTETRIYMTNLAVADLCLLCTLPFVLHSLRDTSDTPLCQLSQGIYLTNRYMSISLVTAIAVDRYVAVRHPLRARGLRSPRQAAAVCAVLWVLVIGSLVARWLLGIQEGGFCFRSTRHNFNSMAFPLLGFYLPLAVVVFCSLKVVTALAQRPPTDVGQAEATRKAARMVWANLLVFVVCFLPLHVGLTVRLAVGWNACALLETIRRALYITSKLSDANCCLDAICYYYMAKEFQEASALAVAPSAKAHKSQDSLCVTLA

[9] = target: T5, Cannabinoid receptor 2 (Homo sapiens, UniProt P34972); assay: SAR analysis of antagonists of the Cannabinoid Receptor 2 using an Image-Based Assay. [Related pubchem assays (depositor defined):AID2013, AID2026]; format: functional
T5 sequence (P34972 whole entry): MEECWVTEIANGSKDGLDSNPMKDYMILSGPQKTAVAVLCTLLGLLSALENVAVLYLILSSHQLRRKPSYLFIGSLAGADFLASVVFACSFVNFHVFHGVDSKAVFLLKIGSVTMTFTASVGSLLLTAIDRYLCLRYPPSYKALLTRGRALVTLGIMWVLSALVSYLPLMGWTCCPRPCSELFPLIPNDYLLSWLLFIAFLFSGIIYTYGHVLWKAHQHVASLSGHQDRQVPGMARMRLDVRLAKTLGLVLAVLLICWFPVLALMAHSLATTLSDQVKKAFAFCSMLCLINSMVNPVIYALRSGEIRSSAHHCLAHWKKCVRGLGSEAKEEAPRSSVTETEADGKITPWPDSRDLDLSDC

[10] = target: T3, Cannabinoid receptor 1; assay: SAR analysis of agonists of the Cannabinoid Receptor 1 using an Image-Based Assay - Set 2. [Related pubchem assays (depositor defined):AID2013, AID2026]; format: functional
[11] = target: T4, G-protein coupled receptor 35; assay: SAR analysis of Antagonists of the GPR35 Receptor using an Image-Based Assay - Set 3. [Related pubchem assays (depositor defined):AID2013, AID2026]; format: functional
[12] = target: G-protein coupled receptor 55 (Homo sapiens, UniProt Q9Y2T6); assay: blockade of LPI-induced GPR55 arrestin translocation – imaging, U2OS, beta-arrestin-GFP, LPI agonist, set 2, SAR follow-up (AID 2820); format: functional
Sequence of G-protein coupled receptor 55 (Q9Y2T6 whole entry): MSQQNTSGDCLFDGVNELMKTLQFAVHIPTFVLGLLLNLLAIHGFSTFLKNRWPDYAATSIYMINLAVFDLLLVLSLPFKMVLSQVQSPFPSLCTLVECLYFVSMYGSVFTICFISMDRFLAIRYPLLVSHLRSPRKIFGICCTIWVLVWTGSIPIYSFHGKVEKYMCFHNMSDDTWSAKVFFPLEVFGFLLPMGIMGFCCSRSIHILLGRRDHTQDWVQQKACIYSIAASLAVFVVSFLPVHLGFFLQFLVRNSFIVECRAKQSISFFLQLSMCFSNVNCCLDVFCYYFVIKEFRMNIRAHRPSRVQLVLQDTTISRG

[13] = target: T5, Cannabinoid receptor 2; assay: SAR analysis of agonists of the Cannabinoid Receptor 2 using an Image-Based Assay. [Related pubchem assays (depositor defined):AID2013, AID2026]; format: functional

Sequence of Intestinal-type alkaline phosphatase (Mus musculus, UniProt P24822) (P24822 whole entry): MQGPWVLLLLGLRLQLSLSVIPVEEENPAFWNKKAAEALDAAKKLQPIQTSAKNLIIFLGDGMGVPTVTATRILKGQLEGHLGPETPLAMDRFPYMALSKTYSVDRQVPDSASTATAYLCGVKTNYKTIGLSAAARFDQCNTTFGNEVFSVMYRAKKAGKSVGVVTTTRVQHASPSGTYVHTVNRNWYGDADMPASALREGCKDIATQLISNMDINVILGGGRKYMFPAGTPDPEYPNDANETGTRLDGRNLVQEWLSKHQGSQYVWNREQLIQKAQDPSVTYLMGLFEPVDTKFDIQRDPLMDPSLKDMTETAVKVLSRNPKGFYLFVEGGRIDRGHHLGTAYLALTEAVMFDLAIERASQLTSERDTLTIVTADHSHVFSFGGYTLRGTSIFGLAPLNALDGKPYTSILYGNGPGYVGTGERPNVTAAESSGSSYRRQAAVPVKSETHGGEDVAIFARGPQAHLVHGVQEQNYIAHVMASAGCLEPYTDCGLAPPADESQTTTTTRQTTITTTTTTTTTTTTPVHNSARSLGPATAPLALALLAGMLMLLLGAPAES

SMILES: O=C(Nc1ccon1)c1nc[nH]c1C(=O)NCc1ccccc1
IC50 [1]: 38.8 µM (active) | AC50 [2]: 0.76 µM (active) | EC50 [3]: 14.2 µM (active) | EC50 [4]: 13.9 µM (active) | EC50 [5]: 16.4 µM (active)

SMILES: O=S(=O)(c1ccc2nc(O)sc2c1)N1CCCCC1
AC50 [6]: > 150 µM (inactive)

IC50 [7]: 5.82 µM (active) | EC50 [8]: > 32 µM (inactive) | IC50 [9]: > 32 µM (inactive) | EC50 [10]: > 32 µM (inactive) | IC50 [11]: > 32 µM (inactive) | IC50 [12]: 0.917 µM (active) | EC50 [13]: > 32 µM (inactive)
SMILES: COc1ccc(CNCCC(c2ccccc2)c2ccc3c(c2)OCO3)cc1 (stereo not drawn)
